The target of data set [1] is T1, Glutamate receptor ionotropic, NMDA 1 (Rattus norvegicus, UniProt P35439). The data set is described as follows: Affinity for glycine site of N-methyl-D-aspartate glutamate receptor determined by displacement of tritium labeled selective glycine antagonist [3H]- SM-18400. Type of data set: functional.
Data set [2] relates to Mus musculus. Kind of data set: Number of mice protected from tonic seizures to that of number tested was determined when compound (3 mg/kg) was administered intravenously to 10 mice. Type of data set: functional.
Data set [3] is filed under the species Mus musculus. Kind of data set: Effective dose of compound required to inhibit N-methyl D-aspartate induced seizures in mice. It counts as functional.
In data set [4] the test system is Rattus norvegicus. The data set is described as follows: Percent of reduction of cortical infarct volume at dose of 20 mg/kg bolus +20 mg/kg/hr continuous infusion was determined in normotensive rats. Type of data set: functional.
For data set [5], the species on record is Rattus norvegicus. The data set is described as follows: Area under the concentration-time curve from time zero to infinity in whole brain homogenates was determined. Type of data set: ADME, organism-based. The note with it: in vivo.
The nature of data set [6]: Binding affinity for glutamate site of N-methyl-D-aspartate glutamate receptor determined by displacement of [3H]- glutamate in rat cortical membranes. It counts as cell membranes, Membrane. (In general: Displacement assays read how much labelled ligand stays bound in the presence of the test substance.)
Data set [7] has as its target Glutamate receptor ionotropic, AMPA (Rattus norvegicus, UniProt P19490+P19491+P19492+P19493). Kind of data set: Binding affinity for non-NMDA receptor determined by displacement of [3H]- AMPA (2-amino-(3-(3-hydroxy-5-methylisoxazole-4-yl)propanoic acid)) in rat cortical membranes. It counts as cell membranes, Membrane.
Data set [8] deals with Glutamate receptor ionotropic, kainate. The data set is described as follows: Binding affinity for non-NMDA receptor determined by displacement of [3H]- KA (kainic acid) in rat cortical membranes. Type of data set: cell membranes, Membrane.
Data set [9] concerns the target T1, Glutamate receptor ionotropic, NMDA 1. The data set is described as follows: Binding affinity for glycine site of N-methyl-D-aspartate glutamate receptor determined by displacement of [3H]- glycine in rat cortical membranes. It counts as cell membranes, Membrane.
Data set [10] shares this target. Kind of data set: Binding affinity for glycine site of N-methyl-D-aspartate glutamate receptor determined by displacement of [3H]- DCKA (5,7-dichlorokynurenic acid) in rat cortical membranes. It counts as cell membranes, Membrane.

For orientation: IC50 means the concentration that inhibits the measured activity by half. A lower IC50 goes with inhibition by little substance. Usually ED50 stands for the dose at which the effect has come halfway, by size or by number of responders. The low end stands for an effect at a small dose, the high end for a need for a large dose. For orientation: Ki means the dissociation constant of the complex between target and ligand, obtained from inhibition or displacement.

As to `O=C(C[C@@H]1CCc2cc(Cl)cc3[nH]c(C(=O)O)c1c23)Nc1ccccc1`, the IC50 in data set [1] is 19 nM. In the data set on Mus musculus [2], this molecule showed a No. of protected/tested of 3.

`NCc1ccc(NC(=O)C[C@@H]2CCc3cc(Cl)cc4[nH]c(=O)c(=O)n2c34)c(OCC(=O)O)c1`: it took a dose of 0.41 mg/kg to reach the 50% effect level in the data set filed under Mus musculus [3] (ED50). The molecule further displayed a Cortical infarct volume in the data set on Rattus norvegicus [4] of 50%. Moreover, in the data set listed under Rattus norvegicus [5], the AUC turned out to be 3.3 µg·min/g. This molecule also displayed an IC50 in data set [1] of 1 nM. The molecule further yielded a No. of protected/tested with Mus musculus [2] of 10.

`C[C@H](C(=O)O)c1cc(CN)ccc1NC(=O)C[C@@H]1CCc2cc(Cl)cc3[nH]c(C(=O)O)c1c23` gave an ED50 in the data set listed under Mus musculus [3] of 3.7 mg/kg. In addition, in data set [1], the IC50 worked out at 29 nM. The No. of protected/tested in the data set with Mus musculus [2] stood at 4.

For the molecule `C[C@@H](C(=O)O)c1cc(CN)ccc1NC(=O)C[C@@H]1CCc2cc(Cl)cc3[nH]c(C(=O)O)c1c23`, in the data set filed under Mus musculus [3], the 50% effect level (ED50) was put at a dose of 2.3 mg/kg. In addition, the inhibition constant (Ki) was over 10000 nM in data set [6]; over 10000 nM in data set [7]; over 10000 nM in data set [8]; 11 nM in [9]; 1 nM in [10]. In the data set with Rattus norvegicus [4], this molecule displayed a Cortical infarct volume of 84%. In the data set filed under Rattus norvegicus [5], this molecule had an AUC of 10 µg·min/g. The molecule further displayed an IC50 in data set [1] of 2.7 nM. In addition, the No. of protected/tested in the data set with Mus musculus [2] is given as 5.

As for `NCc1ccc(NC(=O)C[C@@H]2CCc3cc(Cl)cc4[nH]c(C(=O)O)c2c34)c(CC(=O)O)c1`, the 50% effective dose (ED50) in the data set listed under Mus musculus [3] was 1.8 mg/kg. In addition, the Cortical infarct volume with Rattus norvegicus [4] was 30%. In data set [1], this molecule returned a concentration for half-maximal inhibition (IC50) of 1.5 nM. This molecule also displayed a No. of protected/tested in the data set with Mus musculus [2] of 5.

The molecule `NCc1ccc(NC(=O)C[C@@H]2CCc3cc(Cl)cc4[nH]c(C(=O)O)c2c34)c(OCC(=O)O)c1` (stereo in doubt; 3b) yielded an IC50 in [1] of 33 nM.

`NCc1ccc(NC(=O)C[C@@H]2CCc3cc(Cl)cc4[nH]c(C(=O)O)c2c34)cc1`: the IC50 in [1] was determined as 18 nM. In the data set on Mus musculus [2], this molecule registered a No. of protected/tested of 3.

For the molecule `NCc1ccc(NC(=O)C[C@@H]2CCc3cc(Cl)cc4[nH]c(C(=O)O)c2c34)c(OCC(=O)O)c1` (stereo in doubt; 3a), it took a dose of 5 mg/kg to reach the 50% effect level in the data set filed under Mus musculus [3] (ED50). In data set [1], the IC50 amounted to 1.2 nM. Further, in the data set with Mus musculus [2], the No. of protected/tested is recorded as 2.

In turn, `O=C(O)Cc1ccccc1NC(=O)C[C@@H]1CCc2cc(Cl)cc3[nH]c(C(=O)O)c1c23` came in with an IC50 in data set [1] of 7.6 nM. Also, the No. of protected/tested with Mus musculus [2] is on record as 3.

(Values after ChEMBL document CHEMBL1145975, “Tricyclic indole-2-carboxylic acids: highly in vivo active and selective antagonists for the glycine binding site of the NMDA receptor” (J Med Chem, 2003).)
